Measured values as given in patent US9850283B2, “Macrocyclic inhibitors of the PD-1/PD-L1 and CD80(B7-1)/PD-L1 protein/protein interactions” (BRISTOL-MYERS SQUIBB COMPANY, priority 2013, dated 2017).
Read-outs that look alike come from different tables or passages of the source. Positions of bridges follow the written chain, without caps; N, C: chain ends. Non-standard residues stand in square brackets, D forms with d. Residues, ends and D or L forms follow the SMILES beside them. ξ: configuration not given here. Pro(4,4-F2) = O=C(O)[C@@H]1CC(F)(F)CN1; Bta = N[C@@H](Cc1csc2ccccc12)C(=O)O; ξPro(4R-OH) = O=C(O)C1C[C@@H](O)CN1; Hyp = O=C(O)[C@@H]1C[C@@H](O)CN1; dNMeNle = CCCC[C@@H](NC)C(=O)O; NMeNle = CCCC[C@H](NC)C(=O)O; Pip = O=C(O)[C@@H]1CCCCN1; NMeA = CN[C@@H](C)C(=O)O; Orn = NCCC[C@H](N)C(=O)O; dDap = NC[C@@H](N)C(=O)O; Dab = NCC[C@H](N)C(=O)O; Dap = NC[C@H](N)C(=O)O; ξP = O=C(O)C1CCCN1

Tests used:
[1] = molecular target: T1, Human PD-L1/PD-1 (Homo sapiens, UniProt Q9NZQ7); assay: HTRF PD-1-Ig/PD-L1-His binding assay (human PD-L1)
T1 construct: made in house; host or cells: HEK293T
T1 sequence (Q9NZQ7 with tags, fused parts or gaps): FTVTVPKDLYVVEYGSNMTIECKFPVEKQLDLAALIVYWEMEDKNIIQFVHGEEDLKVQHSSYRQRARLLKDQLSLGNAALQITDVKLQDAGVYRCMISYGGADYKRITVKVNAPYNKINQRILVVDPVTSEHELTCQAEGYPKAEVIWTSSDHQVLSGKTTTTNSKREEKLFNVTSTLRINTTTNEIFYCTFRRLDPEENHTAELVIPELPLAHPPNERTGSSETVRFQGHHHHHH
Summary of the method: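 Soluble PD-1-Ig binding to PD-L1-His measured by HTRF in dPBS with 0.1% BSA and 0.05% Tween-20. Detection used europium cryptate anti-Ig antibody (1 nM final) and APC anti-His antibody (20 nM final) added on top of the binding reaction.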

[2] = molecular target: T2, LK35.2-hPD-L1 cells / PE-labeled PD-1-Ig (Homo sapiens, UniProt Q9NZQ7); assay: LK35.2-hPD-L1 cell binding high-content screening assay; format: cell-based; conditions: cell line of CBA not given (LK35.2-hPD-L1 or 293T-hPD-L1)
T2 construct: expressed in transfected cells; host or cells: LK35.2 mouse B cell line
T2 sequence (Q9NZQ7 19-290): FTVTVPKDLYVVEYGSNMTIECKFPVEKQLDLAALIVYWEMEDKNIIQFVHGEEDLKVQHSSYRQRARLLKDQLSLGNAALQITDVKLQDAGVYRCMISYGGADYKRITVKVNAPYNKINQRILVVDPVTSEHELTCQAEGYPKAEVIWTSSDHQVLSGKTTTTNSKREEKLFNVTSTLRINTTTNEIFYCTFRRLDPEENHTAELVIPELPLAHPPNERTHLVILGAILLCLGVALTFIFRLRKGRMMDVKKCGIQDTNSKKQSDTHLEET
Summary of the method: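 Binding of PE-conjugated human PD-1-Ig (1 nM final) to human PD-L1 stably expressed on a mouse B-cell line (LK35.2) was measured by high-content imaging after washes. Compound and labeled PD-1-Ig were co-incubated 1 h at 37 °C with cells in RPMI/10% FCS.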

[3] = cluster symbol, read-out: HTRF IC50 cluster
[4] = cluster symbol, read-out: CBA IC50 cluster

Row | IC50 ([1]; read-out: HTRF IC50 value) [nM] | IC50 ([2]; read-out: CBA IC50 value) [nM] | IC50 [1, 3] [nM] | IC50 [2, 4] [nM] | SMILES
1 | 6.74 | 21.5 |  |  | CCCC[C@H]1C(=O)N(C)[C@@H](CCCC)C(=O)N[C@@H](CCCN)C(=O)N[C@H](C(=O)NCC(N)=O)CSCC(=O)N[C@@H](Cc2ccc(O)cc2)C(=O)N2C[C@H](N)C[C@H]2C(=O)N[C@@H](CC(N)=O)C(=O)N2CCC[C@H]2C(=O)N[C@@H](Cc2cnc[nH]2)C(=O)N[C@@H](CC(C)C)C(=O)N2C[C@H](O)C[C@H]2C(=O)N[C@@H](Cc2c[nH]c3ccccc23)C(=O)N[C@@H](CO)C(=O)N[C@@H](Cc2c[nH]c3ccccc23)C(=O)N1C [Example 1192]
2 |  |  | 0.385 to 6.74 | 0.158 to 4.71 | CCCC[C@H]1C(=O)N(C)[C@@H](CCCC)C(=O)N[C@@H](CCCN)C(=O)N[C@H](C(=O)NCC(N)=O)CSCC(=O)N[C@@H](Cc2ccc(O)cc2)C(=O)N2CCC[C@H]2C(=O)N[C@@H](CC(=O)O)C(=O)N2CCC[C@H]2C(=O)N[C@@H](CN)C(=O)N[C@@H](CCC(=O)O)C(=O)N2C[C@H](O)C[C@H]2C(=O)N[C@@H](Cc2c[nH]c3ccccc23)C(=O)N[C@@H](CCN)C(=O)N[C@@H](Cc2csc3ccccc23)C(=O)N1C [Example 1193] ({CH2CO}-YPDP[Dap]E[Hyp]W[Dab][Bta][NMeNle][NMeNle][Orn]CG-NH2; thioether N-14)
3 |  |  | 0.385 to 6.74 | 0.158 to 4.71 | CCCC[C@H]1C(=O)N(C)[C@@H](CCCC)C(=O)N[C@@H](CCCN)C(=O)N[C@H](C(=O)NCC(N)=O)CSCC(=O)N[C@@H](Cc2ccc(O)cc2)C(=O)N(C)[C@@H](C)C(=O)N[C@@H](CC(N)=O)C(=O)N2CCC[C@H]2C(=O)N[C@@H](CN)C(=O)N[C@@H](CC(C)C)C(=O)N2C[C@H](O)C[C@H]2C(=O)N[C@@H](Cc2c[nH]c3ccccc23)C(=O)N[C@@H](CCN)C(=O)N[C@@H](Cc2csc3ccccc23)C(=O)N1C [Example 1194] ({CH2CO}-Y[NMeA]NP[Dap]L[Hyp]W[Dab][Bta][NMeNle][NMeNle][Orn]CG-NH2; thioether N-14)
4 |  |  | 0.385 to 6.74 | 0.158 to 4.71 | CCCC[C@H]1C(=O)N(C)[C@@H](CCCC)C(=O)N[C@@H](CCCN)C(=O)N[C@H](C(=O)NCC(N)=O)CSCC(=O)N[C@@H](Cc2ccc(O)cc2)C(=O)N(C)[C@@H](C)C(=O)N[C@@H](CC(N)=O)C(=O)N2CCC[C@H]2C(=O)N[C@@H](CN)C(=O)N[C@@H](CCC(N)=O)C(=O)N2C[C@H](O)C[C@H]2C(=O)N[C@@H](Cc2c[nH]c3ccccc23)C(=O)N[C@@H](CCN)C(=O)N[C@@H](Cc2csc3ccccc23)C(=O)N1C [Example 1195] ({CH2CO}-Y[NMeA]NP[Dap]Q[Hyp]W[Dab][Bta][NMeNle][NMeNle][Orn]CG-NH2; thioether N-14)
5 |  |  | > 30.5 | 4.78 to 72.9 | CCCC[C@H]1C(=O)N(C)[C@@H](CCCC)C(=O)N[C@@H](CCCNC(=N)N)C(=O)N[C@H](C(=O)NCC(N)=O)CSCC(=O)N[C@@H](Cc2ccccc2)C(=O)N(C)[C@@H](C)C(=O)N[C@@H](CC(N)=O)C(=O)N2CCC[C@H]2C(=O)N[C@@H](Cc2cnc[nH]2)C(=O)N[C@@H](CC(C)C)C(=O)N2CCCC[C@H]2C(=O)N[C@@H](Cc2c[nH]c3ccccc23)C(=O)N[C@@H](CO)C(=O)N[C@@H](Cc2c[nH]c3ccccc23)C(=O)N1C [Example 1196] ({CH2CO}-F[NMeA]NPHL[Pip]WSW[NMeNle][NMeNle]RCG-NH2; thioether N-14)
6 |  |  | 6.76 to 30.3 | 4.78 to 72.9 | CCCC[C@H]1C(=O)N(C)[C@@H](CCCC)C(=O)N[C@@H](CCCNC(=N)N)C(=O)N[C@H](C(=O)NCC(N)=O)CSCC(=O)N[C@@H](Cc2ccccc2)C(=O)N(C)[C@@H](C)C(=O)N[C@@H](CC(N)=O)C(=O)N2CCC[C@H]2C(=O)N[C@@H](Cc2cnc[nH]2)C(=O)N[C@@H](CC(C)C)C(=O)N2CC(F)(F)C[C@H]2C(=O)N[C@@H](Cc2c[nH]c3ccccc23)C(=O)N[C@@H](CO)C(=O)N[C@@H](Cc2c[nH]c3ccccc23)C(=O)N1C [Example 1197] ({CH2CO}-F[NMeA]NPHL[Pro(4,4-F2)]WSW[NMeNle][NMeNle]RCG-NH2; thioether N-14)
7 |  |  | 6.76 to 30.3 | 4.78 to 72.9 | CCCC[C@H]1C(=O)N(C)[C@@H](CCCC)C(=O)N[C@@H](CC(=O)O)C(=O)N[C@H](C(=O)NCC(N)=O)CSCC(=O)N[C@@H](Cc2ccc(O)cc2)C(=O)N(C)[C@@H](C)C(=O)N[C@@H](CC(=O)O)C(=O)N2CCC[C@H]2C(=O)N[C@@H](Cc2c[nH]cn2)C(=O)N[C@@H](CCCNC(=N)N)C(=O)N2CCCC2C(=O)N[C@@H](Cc2c[nH]c3ccccc23)C(=O)N[C@@H](CCCNC(=N)N)C(=O)N[C@@H](Cc2c[nH]c3ccccc23)C(=O)N1C (stereo partly shown) [Example 1201] ({CH2CO}-Y[NMeA]DPHR[ξP]WRW[NMeNle][NMeNle]DCG-NH2; thioether N-14)
8 |  |  | 0.385 to 6.74 | 0.158 to 4.71 | CCCC[C@H]1C(=O)N(C)[C@@H](CCCC)C(=O)N[C@@H](C)C(=O)N[C@H](C(=O)NCC(N)=O)CSCC(=O)N[C@@H](Cc2ccc(O)cc2)C(=O)N(C)[C@@H](C)C(=O)N[C@@H](CC(=O)O)C(=O)N2CCC[C@H]2C(=O)N[C@@H](Cc2c[nH]cn2)C(=O)N[C@@H](CCCCN)C(=O)N2C[C@H](O)CC2C(=O)N[C@@H](Cc2c[nH]c3ccccc23)C(=O)N[C@@H](CO)C(=O)N[C@@H](Cc2c[nH]c3ccccc23)C(=O)N1C (stereo partly drawn) [Example 1202] ({CH2CO}-Y[NMeA]DPHK[ξPro(4R-OH)]WSW[NMeNle][NMeNle]ACG-NH2; thioether N-14)
9 |  |  | 6.76 to 30.3 | 0.158 to 4.71 | CCCC[C@H]1C(=O)N(C)[C@@H](CCCC)C(=O)N[C@@H](CC(=O)O)C(=O)N[C@H](C(=O)NCC(N)=O)CSCC(=O)N[C@@H](Cc2ccc(O)cc2)C(=O)N(C)[C@@H](C)C(=O)N[C@@H](CC(=O)O)C(=O)N2CCC[C@H]2C(=O)N[C@@H](Cc2c[nH]cn2)C(=O)N[C@@H](CCCNC(=N)N)C(=O)N2C[C@H](O)CC2C(=O)N[C@@H](Cc2c[nH]c3ccccc23)C(=O)N[C@@H](CCCNC(=N)N)C(=O)N[C@@H](Cc2c[nH]c3ccccc23)C(=O)N1C (stereo partly drawn) [Example 1203] ({CH2CO}-Y[NMeA]DPHR[ξPro(4R-OH)]WRW[NMeNle][NMeNle]DCG-NH2; thioether N-14)
10 |  |  | 0.385 to 6.74 | 4.78 to 72.9 | CCCC[C@@H]1C(=O)N(C)[C@H](CCCC)C(=O)N[C@@H](C)C(=O)N[C@@H](C(=O)NCC(N)=O)CSCC(=O)N[C@@H](Cc2ccc(O)cc2)C(=O)N2CCCC2C(=O)N[C@H](CC(=O)O)C(=O)N2CCC[C@H]2C(=O)N[C@H](CN)C(=O)N[C@@H](CCC(N)=O)C(=O)N2CCCC2C(=O)N[C@H](Cc2c[nH]c3ccccc23)C(=O)N[C@@H](CCN)C(=O)N[C@@H](Cc2c[nH]c3ccccc23)C(=O)N1C (stereo partly shown) [Example 1208] ({CH2CO}-Y[ξP][dD]P[dDap]Q[ξP][dW][Dab]W[dNMeNle][dNMeNle]A[dC]G-NH2; thioether N-14)
11 |  |  | 6.76 to 30.3 | 4.78 to 72.9 | CCCC[C@@H]1C(=O)N(C)[C@H](CCCC)C(=O)N[C@@H](C)C(=O)N[C@@H](C(=O)NCC(N)=O)CSCC(=O)N[C@@H](Cc2ccc(O)cc2)C(=O)N2CCCC2C(=O)N[C@H](CC(=O)O)C(=O)N2CCC[C@H]2C(=O)N[C@H](CN)C(=O)N[C@@H](CCC(=O)O)C(=O)N2CCCC2C(=O)N[C@H](Cc2c[nH]c3ccccc23)C(=O)N[C@@H](CCN)C(=O)N[C@@H](Cc2c[nH]c3ccccc23)C(=O)N1C (stereo partly shown) [Example 1209] ({CH2CO}-Y[ξP][dD]P[dDap]E[ξP][dW][Dab]W[dNMeNle][dNMeNle]A[dC]G-NH2; thioether N-14)
12 |  |  | 6.76 to 30.3 | > 74.3 | CCCC[C@@H]1C(=O)N(C)[C@H](CCCC)C(=O)N[C@@H](C)C(=O)N[C@@H](C(=O)NCC(N)=O)CSCC(=O)N[C@@H](Cc2ccc(O)cc2)C(=O)N2CCCC2C(=O)N[C@H](CC(N)=O)C(=O)N2CCC[C@H]2C(=O)N[C@H](CN)C(=O)N[C@@H](CCC(N)=O)C(=O)N2CCCC2C(=O)N[C@H](Cc2c[nH]c3ccccc23)C(=O)N[C@@H](CCN)C(=O)N[C@@H](Cc2c[nH]c3ccccc23)C(=O)N1C (stereo partly shown) [Example 1211] ({CH2CO}-Y[ξP][dN]P[dDap]Q[ξP][dW][Dab]W[dNMeNle][dNMeNle]A[dC]G-NH2; thioether N-14)
13 |  |  | > 30.5 | > 74.3 | CCCC[C@@H]1C(=O)N(C)[C@H](CCCC)C(=O)N[C@@H](CN)C(=O)N[C@@H](C(=O)NCC(N)=O)CSCC(=O)N[C@@H](Cc2ccc(O)cc2)C(=O)N2CCCC2C(=O)N[C@H](CC(=O)O)C(=O)N2CCC[C@H]2C(=O)N[C@H](CN)C(=O)N[C@@H](CC(=O)O)C(=O)N2CCCC2C(=O)N[C@H](Cc2c[nH]c3ccccc23)C(=O)N[C@@H](CCN)C(=O)N[C@@H](Cc2c[nH]c3ccccc23)C(=O)N1C (stereo partly shown) [Example 1212] ({CH2CO}-Y[ξP][dD]P[dDap]D[ξP][dW][Dab]W[dNMeNle][dNMeNle][Dap][dC]G-NH2; thioether N-14)
14 |  |  | 6.76 to 30.3 | 4.78 to 72.9 | CCCC[C@@H]1C(=O)N(C)[C@H](CCCC)C(=O)N[C@@H](CN)C(=O)N[C@@H](C(=O)NCC(N)=O)CSCC(=O)N[C@@H](Cc2ccc(O)cc2)C(=O)N2CCCC2C(=O)N[C@H](CC(=O)O)C(=O)N2CCC[C@H]2C(=O)N[C@H](CN)C(=O)N[C@@H](CCC(N)=O)C(=O)N2CCCC2C(=O)N[C@H](Cc2c[nH]c3ccccc23)C(=O)N[C@@H](CCN)C(=O)N[C@@H](Cc2c[nH]c3ccccc23)C(=O)N1C (stereo partly shown) [Example 1213] ({CH2CO}-Y[ξP][dD]P[dDap]Q[ξP][dW][Dab]W[dNMeNle][dNMeNle][Dap][dC]G-NH2; thioether N-14)
